In patent US9474790B2, “Stable, protracted GLP-1/glucagon receptor co-agonists for medical use” (Novo Nordisk A/S, priority 2013, dated 2016):
pIC50: −log10 of the molar value. Numbered stars: 1 amine (or outer) side, 2 acyl side, 3 side chain; on linkers, the order of the positions; unused ones are H or OH. Bridge positions count the residues as written; N and C are the ends. Square brackets hold non-standard residues; d marks the D form. Side chains are listed from the residue outwards. Peptide text beside a SMILES is read from it. I, II: the chains in the order shown. * marks the point of attachment. C18 diacid = O=C(O)CCCCCCCCCCCCCCCCC(=O)*; γGlu = O=C(O)[C@H](CCC(=O)[*:2])N[*:1]; Ac4c = NC1(C(=O)O)CCC1; AEEA = NCCOCCOCC(=O)O; Aib = CC(C)(N)C(=O)O

Target: T1, human GLP-1 receptor (Homo sapiens, UniProt P43220)
T1 construct: expressed in transfected cells; host or cells: BHK cells (parent BHKTS13), clone FCW467-12A/KZ10-1, with CRE luciferase
T1 sequence (P43220 24-463): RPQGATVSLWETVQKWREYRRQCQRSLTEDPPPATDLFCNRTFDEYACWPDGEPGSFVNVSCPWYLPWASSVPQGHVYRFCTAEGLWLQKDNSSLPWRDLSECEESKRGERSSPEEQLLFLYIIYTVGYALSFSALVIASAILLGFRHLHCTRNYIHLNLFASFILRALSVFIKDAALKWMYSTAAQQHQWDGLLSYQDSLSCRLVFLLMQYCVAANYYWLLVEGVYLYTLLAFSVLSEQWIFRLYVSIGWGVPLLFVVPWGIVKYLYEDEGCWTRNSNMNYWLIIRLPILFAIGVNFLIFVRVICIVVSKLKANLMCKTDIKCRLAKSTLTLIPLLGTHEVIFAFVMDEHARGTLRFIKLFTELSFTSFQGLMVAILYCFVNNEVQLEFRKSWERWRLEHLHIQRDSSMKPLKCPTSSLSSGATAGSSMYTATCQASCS
Experiment: GLP-1 receptor binding, 125I-GLP-1 displacement SPA on isolated membranes
Details: displacement of 125I-GLP-1 from membranes; read-out: IC50 GLP-1R
In short: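 SPA displacement of 125I-GLP-1(7-36)NH2 from membranes of BHK cells expressing human GLP-1 receptor, with WGA beads, in 50 mM HEPES, 5 mM EGTA, 5 mM MgCl2, 0.005% Tween 20, pH 7.4. Incubated 2 h at 30°C; IC50 by non-linear regression, run at ≤0.001% or 2.0% final serum albumin.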

| Compound | pIC50 |
| --- | --- |
| CC(C)C[C@H](NC(=O)[C@H](Cc1ccc(O)cc1)NC(=O)[C@H](CCCCN)NC(=O)[C@H](CO)NC(=O)[C@H](CC(C)C)NC(=O)[C@H](CC(=O)O)NC(=O)[C@H](CO)NC(=O)[C@@H](NC(=O)[C@H](Cc1ccccc1)NC(=O)[C@@H](NC(=O)CNC(=O)[C@H](CCC(N)=O)NC(=O)C1(NC(=O)[C@@H](N)Cc2c[nH]cn2)CCC1)[C@@H](C)O)[C@@H](C)O)C(=O)N[C@@H](CCC(=O)O)C(=O)N[C@@H](CO)C(=O)N[C@@H](CCCCN)C(=O)N[C@@H](CCCNC(=N)N)C(=O)N[C@@H](C)C(=O)N[C@@H](CCCNC(=N)N)C(=O)N[C@@H](CCC(=O)O)C(=O)N[C@@H](Cc1ccccc1)C(=O)N[C@H](C(=O)N[C@@H](CCC(N)=O)C(=O)N[C@@H](Cc1c[nH]c2ccccc12)C(=O)N[C@@H](CC(C)C)C(=O)N[C@@H](CC(C)C)C(=O)N[C@@H](CCCCNC(=O)CNC(=O)[C@H](CO)NC(=O)[C@H](CCC(=O)O)NC(=O)CNC(=O)[C@H](CO)NC(=O)CC[C@H](NC(=O)CC[C@H](NC(=O)CCCCCCCCCCCCCCCCC(=O)O)C(=O)O)C(=O)O)C(=O)N[C@H](C(N)=O)[C@@H](C)O)C(C)C [Example 36, N^ε28-[2-[[(2S)-2-[[(2S)-4-carboxy-2-[[2-[[(2S)-2-[[(4S)-4-carboxy-4-[[(4S)-4-carboxy-4-(17-carboxyheptadecanoylamino)butanoyl]amino]butanoyl]amino]-3-hydroxypropanoyl]amino]acetyl]amino]butanoyl]amino]-3-hydroxypropanoyl]amino]acetyl]-[Acb2,Leu10,Glu15,Lys17, Arg20,Glu21,Leu27,Lys28]-Glucagon amide] (I: H-H[Ac4c]QGTFTSDLSKYLESKRAREFVQWLLKT-NH2 / II: {C18 diacid-γGlu-γGlu}-SGESG; amide I:28-II:C; N-terminus assumed) | 9.70 |
| CC(C)C[C@H](NC(=O)[C@H](Cc1ccc(O)cc1)NC(=O)[C@H](CCCCN)NC(=O)[C@H](CO)NC(=O)[C@H](CC(C)C)NC(=O)[C@H](CC(=O)O)NC(=O)[C@H](CO)NC(=O)[C@@H](NC(=O)[C@H](Cc1ccccc1)NC(=O)[C@@H](NC(=O)CNC(=O)[C@H](Cc1c[nH]cn1)NC(=O)C(C)(C)NC(=O)[C@@H](N)Cc1c[nH]cn1)[C@@H](C)O)[C@@H](C)O)C(=O)N[C@@H](CCC(=O)O)C(=O)N[C@@H](CO)C(=O)N[C@@H](CCCNC(=N)N)C(=O)N[C@@H](CCCNC(=N)N)C(=O)N[C@@H](C)C(=O)N[C@@H](CCCNC(=N)N)C(=O)N[C@@H](CC(=O)O)C(=O)N[C@@H](Cc1ccccc1)C(=O)N[C@H](C(=O)N[C@@H](CCC(N)=O)C(=O)N[C@@H](Cc1c[nH]c2ccccc12)C(=O)N[C@@H](CC(C)C)C(=O)N[C@@H](CC(C)C)C(=O)N[C@@H](CCCCNC(=O)CNC(=O)[C@H](CO)NC(=O)[C@H](CCC(=O)O)NC(=O)CNC(=O)[C@H](CO)NC(=O)CC[C@H](NC(=O)CC[C@H](NC(=O)CCCCCCCCCCCCCCCCC(=O)O)C(=O)O)C(=O)O)C(=O)N[C@H](C(N)=O)[C@@H](C)O)C(C)C [Example 37, N^ε28-[2-[[(2S)-2-[[(2S)-4-carboxy-2-[[2-[[(2S)-2-[[(4S)-4-carboxy-4-[[(4S)-4-carboxy-4-(17-carboxyheptadecanoylamino)butanoyl]amino]butanoyl]amino]-3-hydroxypropanoyl]amino]acetyl]amino]butanoyl]amino]-3-hydroxypropanoyl]amino]acetyl]-[Aib2,His3,Leu10,Glu15, Arg20,Leu27,Lys28]-Glucagon amide] (I: H-H[Aib]HGTFTSDLSKYLESRRARDFVQWLLKT-NH2 / II: {C18 diacid-γGlu-γGlu}-SGESG; amide I:28-II:C; N-terminus assumed) | 9.70 |
| CC(C)C[C@H](NC(=O)[C@H](Cc1ccc(O)cc1)NC(=O)[C@H](CCCCN)NC(=O)[C@H](CO)NC(=O)[C@H](CC(C)C)NC(=O)[C@H](CC(=O)O)NC(=O)[C@H](CO)NC(=O)[C@@H](NC(=O)[C@H](Cc1ccccc1)NC(=O)[C@@H](NC(=O)CNC(=O)[C@H](CCC(N)=O)NC(=O)C(C)(C)NC(=O)[C@@H](N)Cc1c[nH]cn1)[C@@H](C)O)[C@@H](C)O)C(=O)N[C@@H](CC(=O)O)C(=O)N[C@@H](C)C(=O)N[C@@H](CCCNC(=N)N)C(=O)N[C@@H](CCCNC(=N)N)C(=O)N[C@@H](C)C(=O)N[C@@H](CCCNC(=N)N)C(=O)N[C@@H](CCC(=O)O)C(=O)N[C@@H](Cc1ccccc1)C(=O)N[C@H](C(=O)N[C@@H](CCC(N)=O)C(=O)N[C@@H](Cc1c[nH]c2ccccc12)C(=O)N[C@@H](CC(C)C)C(=O)N[C@@H](CC(C)C)C(=O)N[C@@H](CC(N)=O)C(=O)N[C@@H](CCCCNC(=O)CC[C@H](NC(=O)CC[C@H](NC(=O)COCCOCCNC(=O)CC[C@H](NC(=O)CCCCCCCCCCCCCCCCC(=O)O)C(=O)O)C(=O)O)C(=O)O)C(N)=O)C(C)C [Example 39, N^ε29-[(4S)-4-carboxy-4-[[(4S)-4-carboxy-4-[[2-[2-[2-[[(4S)-4-carboxy-4-(17-carboxyheptadecanoylamino)butanoyl]amino]ethoxy]ethoxy]acetyl]amino]butanoyl]amino]butanoyl]-[Aib2,Leu10,Ala16,Arg20,Glu21,Leu27,Lys29]-Glucagon amide] (H-H[Aib]QGTFTSDLSKYLDARRAREFVQWLLNK([γGlu-γGlu-AEEA-γGlu-C18 diacid])-NH2; N-terminus assumed) | 9.52 |
| CC(C)C[C@H](NC(=O)[C@H](CC(C)C)NC(=O)[C@H](Cc1c[nH]c2ccccc12)NC(=O)[C@H](CCC(N)=O)NC(=O)[C@@H](NC(=O)[C@H](Cc1ccccc1)NC(=O)[C@H](CCC(=O)O)NC(=O)[C@H](CCCNC(=N)N)NC(=O)[C@H](C)NC(=O)[C@H](CCCNC(=N)N)NC(=O)[C@H](CCCNC(=N)N)NC(=O)[C@H](CO)NC(=O)[C@H](CCC(=O)O)NC(=O)[C@H](CC(C)C)NC(=O)[C@H](Cc1ccc(O)cc1)NC(=O)[C@H](CCCCN)NC(=O)[C@H](CO)NC(=O)[C@H](CC(C)C)NC(=O)[C@H](CC(=O)O)NC(=O)[C@H](CO)NC(=O)[C@@H](NC(=O)[C@H](Cc1ccccc1)NC(=O)[C@@H](NC(=O)CNC(=O)[C@H](CCC(N)=O)NC(=O)C(C)(C)NC(=O)[C@@H](N)Cc1c[nH]cn1)[C@@H](C)O)[C@@H](C)O)C(C)C)C(=O)N[C@@H](CC(N)=O)C(=O)N[C@@H](CCCCNC(=O)CC[C@H](NC(=O)CC[C@H](NC(=O)COCCOCCNC(=O)CC[C@H](NC(=O)CCCCCCCCCCCCCCCCC(=O)O)C(=O)O)C(=O)O)C(=O)O)C(N)=O [Example 40, N^ε29-[(4S)-4-carboxy-4-[[(4S)-4-carboxy-4-[[2-[2-[2-[[(4S)-4-carboxy-4-(17-carboxyheptadecanoylamino)butanoyl]amino]ethoxy]ethoxy]acetyl]amino]butanoyl]amino]butanoyl]-[Aib2,Leu10,Glu15,Arg20,Glu21,Leu27,Lys29]-Glucagon amide] (H-H[Aib]QGTFTSDLSKYLESRRAREFVQWLLNK([γGlu-γGlu-AEEA-γGlu-C18 diacid])-NH2; N-terminus assumed) | 9.40 |
